Source: US20240360109A1 (SHANGHAI HANSOH BIOMEDICAL CO., LTD., priority 2021, published 2024)

Assays:
human GLP-1 receptor = target: T1, human GLP-1 receptor (Homo sapiens, UniProt P43220); experiment: Stimulation of human GLP1 receptor stable transgenic cell line CHO-K1/GLP-1R/CRE-luc to produce cAMP (HTRF); assay type: cell-based; conditions: cAMP production, CHO-K1/GLP-1R/CRE-luc cells, 30 minutes incubation, 0.5 mM IBMX
T1 construct: expressed in transfected cells
Source text: I. Determination of the Ability of the Compound of the Present Invention to Stimulate Human GLP1 Receptor Stable Transgenic Cell Lines to Produce cAMP
The purpose of this test example is to determine the ability of the compound to activate the human GLP-1 receptor on the cell surface. The EC50 that stimulates […] after agonism characterizes the compound's ability to activate the human GLP-1 receptor.
The frozen human GLP1 receptor stable transgenic cell line CHO-K1/GLP-1R/CRE-luc was taken from the liquid nitrogen tank, quickly thawed in a 37° C. water bath, resuspended with DMEM/F12 medium, centrifuged, and washed once. The cells were resuspended with the experimental buffer, namely DMEM/F12 medium containing 0.1% casein, and the experimental buffer was used to adjust the cell density. The cells were spread on spread on a 384-well plate at a density of 2500 cells/5 μL/well, and then to each well was added 2.5 μL of buffer-prepared IBMX working solution with a final concentration of IBMX of 0.5 mM, and 2.5 μL of the compound sample with gradient dilution (starting at 1000 nM, 3-fold dilution, 11 concentrations). The plate was centrifuged at 1000 rpm for 1 minute, shaken for 30 seconds to mix well, and incubated at room temperature for 30 minutes. Detection was performed using the Cisbio cAMP—Gs Dynamic kit. cAMP-d2 and Anti-cAMP-Eu^3+-Cryptate were diluted 20-fold with cAMP Lysis & Detection Buffer, respectively, and mixed well. To each well was added 5 μL diluted cAMP-d2 solution, and then added 5 μL diluted Anti-cAMP-Eu3^+-Cryptate solution. The plate was shaken for 30 seconds, and incubated at room temperature for 1 hour in the dark. The signal reading of HTRF was performed using the Biotek Synergy H1 microplate reader with an excitation wavelength of 320 nm and emission wavelengths of 620 nm and 665 nm.
The signal ratio (665 nm/620 nm*10,000) was calculated, and the signal ratio and sample concentration were nonlinearly fitted using a four-parameter equation in GraphPad Prism 6 to obtain the EC50 value.

[1] = Pharmacokinetic assay of SD rats; assay type: in vivo; conditions: Sprague-Dawley, rat, po; male SD rats, plasma, dose 50 mg/kg (b1219 prints 5 mg/kg)
Procedure: SD rats were used as test animals. The pharmacokinetic behavior of the following example compounds was studied in the plasma of rats administered orally at a dose of 50 mg/kg.
Vehicle formula: 0.5% CMC-Na (1% Tween 80);
Three SD rats per group, male. […]
Before and after administration, 0.2 mL of blood was collected from the jugular vein at 0, 0.25, 0.5, 1, 2, 4, 6, 8 and 24 hours, placed in EDTA-K2 tubes, centrifuged at 6000 rpm at 4° C. for 6 min to separate the plasma. The plasma samples were stored at −80° C. The […] was fed 4 hours after the administration.
• 1) 160 μL of acetonitrile was added to 40 μL of the plasma sample for precipitation, and then the mixture was centrifuged at 3500×g for 5-20 min. • 2) After the above process, 100 μL of the supernatant was taken to analyze the concentration of the test compound by LC/MS/MS.
• Liquid chromatography condition: Shimadzu LC-20AD pump Mass spectrometry condition: AB Sciex API 4000 mass spectrometer Chromatographic column: phenomenex Gemiu 5 μm C18 50×4.6 mm • Mobile phase: Eluent A was 0.1% formic acid in water, and Eluent B was methanol • Flow rate: 1.0 mL/min • Elution time: 0-4.0 minutes, the eluent is as follows:
The main pharmacokinetic parameters were calculated using WinNonlin 8.2.

[2] = system: GLP-1R humanized C57BL/6 mice fed with high-fat diet; experiment: Long-term administration: body weight and ingestion of GLP-1R humanized mice fed with high-fat diet; assay type: in vivo; conditions: HFD mice; for Weight (g)-D0 Mean: Day 0 (day of first administration, baseline), 10 mg/kg oral once a day; for Body weight change(%)-D10 Mean: Day 10 versus Day 0, 10 mg/kg oral once a day
Source text: The purpose of this test is to evaluate the effects of long-term administration of the compound on the body weight and ingestion of GLP-1R humanized C57BL/6 mice fed with high-fat diet.
C57BL/6_hGLP-1R, male, 5-8 weeks; 60% high-fat diet (HFD); Ultra-clean workbench; Electronic balance.
3.1 On the day of feeding with high-fat diet, C57BL/6 mice were randomly divided into two groups according to their weight. The first group was Blank, with 7 mice fed with normal control diet, while the remaining animals were in the modeling group, fed with high-fat diet, and continued until the end of the experiment.
3.2 At the 8th week of HFD feeding, the modeling group animals were randomly divided with 7 animals per group according to their weight. The first group was the Vehicle group (Vehicle: 0.5% CMC Na+1% Tween 80), which was given vehicle; The remaining group was the administration group; Administration regimen: Oral administration of the corresponding compound, administration cycle was 14 days, once a day for 14 days, with an administration dose of 10 mg/kg and an administration volume of 10 mL/kg. The Blank group continued to be fed with normal diet without any administration operation.
3.3 The day of administration was defined as Day 0.
3.4 During each administration, animals were weighed and data was recorded. Oral administration is performed according to body weight, with an administration volume of 10 mL/kg.
3.5 Starting from Day 0 of the experiment, the food intake of each group of mice was measured once every three days. Specifically, the feed was changed after each weighing and administration, and the added and remaining amounts were recorded.
3.6 On the end day of Day 14, all mice were euthanized sequentially according to grouping order, and the livers were dissected and weighed.
The weight and weight change rate of mice after administration were summarize and statistically analyzed. Weight change rate calculation: (BWt−BW0)/BW0×100%. BWt represents the weight of the mice on Day t of the experiment, and BW0 represents the weight of the mice on Day 0 of the experiment.
Calculation of food intake: (added amount (g)−remaining amount (g))/number of animals per cage, cumulative food intake is the sum of daily food intake of each animal during the administration period.
Experimental data were analyzed using GraphPad Prism software. The t-test method was used for comparison between the two groups. The one-way ANOVA method was used for comparisons between three or more groups.

T1 sequence (P43220 24-463): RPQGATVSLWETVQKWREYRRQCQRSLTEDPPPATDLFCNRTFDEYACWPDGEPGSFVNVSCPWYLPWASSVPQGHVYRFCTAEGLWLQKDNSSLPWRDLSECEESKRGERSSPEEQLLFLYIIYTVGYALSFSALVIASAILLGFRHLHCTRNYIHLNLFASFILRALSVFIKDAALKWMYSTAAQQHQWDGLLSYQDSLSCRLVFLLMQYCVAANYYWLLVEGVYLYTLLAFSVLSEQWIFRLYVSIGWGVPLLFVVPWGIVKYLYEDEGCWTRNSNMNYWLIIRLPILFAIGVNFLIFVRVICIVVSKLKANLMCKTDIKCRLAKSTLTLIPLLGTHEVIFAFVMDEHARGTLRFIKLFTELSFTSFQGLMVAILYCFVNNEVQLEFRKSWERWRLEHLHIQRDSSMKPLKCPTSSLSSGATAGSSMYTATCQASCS

Row | Structure (SMILES) | EC50 (human GLP-1 receptor) | AUC(0-inf) [1] | AUC(0-t) [1] | Cmax [1] | Tmax [1] | half-life [1] | other results
1 | O=C(O)c1ccc2nc(CN3CCC(c4cccc5c4O[C@@H](c4ccc(Cl)cc4F)C=C5F)CC3)n(C[C@@H]3CCO3)c2n1 [Example 2-A, 2-((4-((R)-2-(4-chloro-2-fluorophenyl)-4-fluoro-2H-chroman-8-yl)piperidin-1-yl)methyl)-3-(((S)-oxetan-2-yl)methyl)-3H-imidazolo[4,5-b]pyridine-5-carboxylic acid] | 0.07 nM | 35800 ng·h/mL | 35800 ng·h/mL | 7160 ng/mL | 2 h | 3.1 h | 
2 | [2H][C@]1(c2ccc(Cl)cc2F)C=Cc2cccc(C3CCN(Cc4nc5ccc(C(=O)O)cc5n4C[C@@H]4CCO4)CC3)c2O1 [Example 47] | 0.08 nM |  |  |  |  |  | 
3 | [2H]C([2H])([2H])Oc1cc(Cl)ccc1[C@@]1([2H])C=C(F)c2cccc(C3CCN(Cc4nc5ccc(C(=O)O)cc5n4C[C@@H]4CCO4)CC3)c2O1 [Example 49, 2-((4-((R)-2-(4-Chloro-2-(methoxy-d3)phenyl)-4-fluoro-2H-chromen-8-yl-2-d)piperidin-1-yl)methyl)-1-(((S)-oxetan-2-yl)methyl)-1H-benzo[d]imidazole-6-carboxylic acid] | 0.08 nM |  |  |  |  |  | 
4 | [2H][C@]1(c2ccc(Cl)cc2F)C=C(F)c2cccc(C3CCN(Cc4nc5ccc(C(=O)O)nc5n4C[C@@H]4CCO4)CC3)c2O1 [Example 40, 2-((4-((R)-2-(4-Chloro-2-fluorophenyl)-4-fluoro-2H-chromen-8-yl-2-d)piperidin-1-yl)methyl)-3-(((S)-oxetan-2-yl)methyl)-3H-imidazolo[4,5-b]pyridine-5-carboxylic acid] | 0.1 nM | 10800 ng·h/mL | 10300 ng·h/mL | 2300 ng/mL | 1 h | 2 h | Weight (g)-D0 Mean ([2]; the 3rd table): 28.40 g; Weight (g)-D10 Mean ([2]; Day 10, 10 mg/kg oral once a day, the 3rd table): 26.01 g; Body weight change(%)-D10 Mean ([2]; the 3rd table): −8.49%
5 | [2H]C([2H])([2H])Oc1cc(Cl)ccc1[C@H]1C=C(F)c2cccc(C3CCN(Cc4nc5ccc(C(=O)O)nc5n4C[C@@H]4CCO4)CC3)c2O1 [Example 23-A, 2-((4-((R)-2-(4-chloro-2-(methoxy-d3)phenyl)-4-fluoro-2H-chromen-8-yl)piperidin-1-yl)methyl)-3-(((S)-oxetan-2-yl)methyl)-3H-imidazolo[4,5-b]pyridine-5-carboxylic acid] | 0.07 nM |  |  |  |  |  | 
6 | O=C(O)c1ccc2nc(CN3CCC(c4cccc5c4OC(c4ccc(Cl)cc4F)C=C5F)CC3)n(C[C@@H]3CCO3)c2c1 (stereo partly drawn) [Example 1, 2-((4-(2-(4-Chloro-2-fluorophenyl)-4-fluoro-2H-chromen-8-yl)piperidin-1-yl)methyl)-1-(((S)-oxetan-2-yl)methyl)-1H-benzo[d]imidazole-6-carboxylic acid] | 0.13 nM |  |  |  |  |  | 

The next compounds have a lower EC50 (human GLP-1 receptor) than those just listed; values first:

Row | EC50 (human GLP-1 receptor) | AUC(0-inf) [1] | AUC(0-t) [1] | Cmax [1] | Tmax [1] | half-life [1] | Structure (SMILES) | other results
7 | 0.06 nM |  |  |  |  |  | O=C(O)c1ccc2nc(CN3CCC(c4cccc5c4OC(c4ccc(Cl)cc4F)C=C5F)CC3)n(CC3(CF)CC3)c2c1 (stereo not drawn) [Example 3, 2-((4-(2-(4-Chloro-2-fluorophenyl)-4-fluoro-2H-chromen-8-yl)piperidin-1-yl)methyl)-1-((1-(fluoromethyl)cyclopropyl)methyl)-1H-benzo[d]imidazole-6-carboxylic acid] | 
8 | 0.06 nM | 21600 ng·h/mL | 21500 ng·h/mL | 7980 ng/mL | 0.5 h | 2 h | O=C(O)c1ccc2nc(CN3CCC(c4cccc5c4O[C@@H](c4ccc(Cl)cc4F)C=C5)CC3)n(C[C@@H]3CCO3)c2c1 [Example 53] | Weight (g)-D0 Mean ([2]; the 4th table): 28.34 g; Eeight (g)-D10 Mean ([2]; Day 10, 10 mg/kg oral once a day, the 4th table): 25.65 g; Body weight change(%)-D10 Mean ([2]; the 4th table): −9.53%
9 | 0.05 nM |  |  |  |  |  | [2H]C([2H])([2H])Oc1cc(Cl)ccc1[C@H]1C=C(F)c2cccc(C3CCN(Cc4nc5ccc(C(=O)O)cc5n4C[C@@H]4CCO4)CC3)c2O1 [Example 24-A, 2-((4-((R)-2-(4-chloro-2-(methoxy-d3)phenyl)-4-fluoro-2H-chromen-8-yl)piperidin-1-yl)methyl)-1-(((S)-oxetan-2-yl)methyl)-1H-benzo[d]imidazole-6-carboxylic acid] | 
10 | 0.05 nM | 12600 ng·h/mL | 12600 ng·h/mL | 9400 ng/mL | 1 h | 1.6 h | N#Cc1ccc([C@H]2C=Cc3cccc(C4CCN(Cc5nc6ccc(C(=O)O)cc6n5C[C@@H]5CCO5)CC4)c3O2)c(F)c1 [Example 52, 2-((4-((R)-2-(4-Cyano-2-fluorophenyl)-2H-chromen-8-yl)piperidin-1-yl)methyl)-1-(((S)-oxetan-2-yl)methyl)-1H-benzo[d]imidazole-6-carboxylic acid] | 
